{"source": "ChEMBL document CHEMBL1649198", "about": "“Efflux unbalance in Pseudomonas aeruginosa isolates from cystic fibrosis patients” (2009)"}
{"test_system": "Pseudomonas aeruginosa", "assay": "Antimicrobial activity against Pseudomonas aeruginosa PAO1 by twofold macrodilution method", "assay_type": "functional", "units": {"MIC": "µg/mL"}}
{"smiles": "CO[C@@H]1[C@@H](OC(N)=O)[C@@H](O)[C@H](Oc2ccc3c(O)c(NC(=O)c4ccc(O)c(CC=C(C)C)c4)c(=O)oc3c2C)OC1(C)C", "note": "[NOVOBIOCIN]", "MIC": 512}
{"test_system": "Pseudomonas aeruginosa", "assay": "Antimicrobial activity against Pseudomonas aeruginosa isolate 2998 obtained from cystic fibrosis patient", "units": {"MIC": "µg/mL"}}
{"smiles": "CO[C@@H]1[C@@H](OC(N)=O)[C@@H](O)[C@H](Oc2ccc3c(O)c(NC(=O)c4ccc(O)c(CC=C(C)C)c4)c(=O)oc3c2C)OC1(C)C", "note": "[NOVOBIOCIN]", "MIC": 32}
{"test_system": "Pseudomonas aeruginosa", "assay": "Antimicrobial activity against Pseudomonas aeruginosa isolate 2933 obtained from cystic fibrosis patient by disk diffusion method", "assay_type": "functional", "units": {"MIC": "µg/mL"}}
{"smiles": "CO[C@@H]1[C@@H](OC(N)=O)[C@@H](O)[C@H](Oc2ccc3c(O)c(NC(=O)c4ccc(O)c(CC=C(C)C)c4)c(=O)oc3c2C)OC1(C)C", "note": "[NOVOBIOCIN]", "MIC": 8}
{"test_system": "Pseudomonas aeruginosa", "assay": "Antimicrobial activity against Pseudomonas aeruginosa isolate 2858 obtained from cystic fibrosis patient by disk diffusion method", "assay_type": "functional", "units": {"MIC": "µg/mL"}}
{"smiles": "CO[C@@H]1[C@@H](OC(N)=O)[C@@H](O)[C@H](Oc2ccc3c(O)c(NC(=O)c4ccc(O)c(CC=C(C)C)c4)c(=O)oc3c2C)OC1(C)C", "note": "[NOVOBIOCIN]", "MIC": 64}
{"test_system": "Pseudomonas aeruginosa", "assay": "Antimicrobial activity against Pseudomonas aeruginosa isolate 2729 obtained from cystic fibrosis patient by disk diffusion method", "assay_type": "functional", "units": {"MIC": "µg/mL"}}
{"smiles": "CO[C@@H]1[C@@H](OC(N)=O)[C@@H](O)[C@H](Oc2ccc3c(O)c(NC(=O)c4ccc(O)c(CC=C(C)C)c4)c(=O)oc3c2C)OC1(C)C", "note": "[NOVOBIOCIN]", "MIC": 32}
{"test_system": "Pseudomonas aeruginosa", "assay": "Antimicrobial activity against Pseudomonas aeruginosa isolate 615R with inactivated mexB gene obtained from cystic fibrosis patient by disk diffusion method", "units": {"MIC": "µg/mL"}}
{"smiles": "CO[C@@H]1[C@@H](OC(N)=O)[C@@H](O)[C@H](Oc2ccc3c(O)c(NC(=O)c4ccc(O)c(CC=C(C)C)c4)c(=O)oc3c2C)OC1(C)C", "note": "[NOVOBIOCIN]", "MIC": 4}
{"test_system": "Pseudomonas aeruginosa", "assay": "Antimicrobial activity against Pseudomonas aeruginosa mutGR1 overexpressing mexXY mutant by twofold macrodilution method", "assay_type": "functional", "units": {"MIC": "µg/mL"}}
{"smiles": "CO[C@@H]1[C@@H](OC(N)=O)[C@@H](O)[C@H](Oc2ccc3c(O)c(NC(=O)c4ccc(O)c(CC=C(C)C)c4)c(=O)oc3c2C)OC1(C)C", "note": "[NOVOBIOCIN]", "MIC": 512}
{"test_system": "Pseudomonas aeruginosa", "assay": "Antimicrobial activity against mexB gene inactivated Pseudomonas aeruginosa isolate 3020R obtained from cystic fibrosis patient by agar dilution method", "units": {"MIC": "µg/mL"}}
{"smiles": "CO[C@@H]1[C@@H](OC(N)=O)[C@@H](O)[C@H](Oc2ccc3c(O)c(NC(=O)c4ccc(O)c(CC=C(C)C)c4)c(=O)oc3c2C)OC1(C)C", "note": "[NOVOBIOCIN]", "MIC": 16}
{"test_system": "Pseudomonas aeruginosa", "assay": "Antimicrobial activity against mexXY operon inactivated Pseudomonas aeruginosa PAO1 by twofold macrodilution method", "assay_type": "functional", "units": {"MIC": "µg/mL"}}
{"smiles": "CO[C@@H]1[C@@H](OC(N)=O)[C@@H](O)[C@H](Oc2ccc3c(O)c(NC(=O)c4ccc(O)c(CC=C(C)C)c4)c(=O)oc3c2C)OC1(C)C", "note": "[NOVOBIOCIN]", "MIC": 32}
{"test_system": "Pseudomonas aeruginosa", "assay": "Antimicrobial activity against mexB gene inactivated Pseudomonas aeruginosa isolate 2721 obtained from cystic fibrosis patient by agar dilution method", "units": {"MIC": "µg/mL"}}
{"smiles": "CO[C@@H]1[C@@H](OC(N)=O)[C@@H](O)[C@H](Oc2ccc3c(O)c(NC(=O)c4ccc(O)c(CC=C(C)C)c4)c(=O)oc3c2C)OC1(C)C", "note": "[NOVOBIOCIN]", "MIC": 32}
{"test_system": "Pseudomonas aeruginosa", "assay": "Antimicrobial activity against Pseudomonas aeruginosa isolate 2729 obtained from cystic fibrosis patient", "units": {"MIC": "µg/mL"}}
{"smiles": "CO[C@@H]1[C@@H](OC(N)=O)[C@@H](O)[C@H](Oc2ccc3c(O)c(NC(=O)c4ccc(O)c(CC=C(C)C)c4)c(=O)oc3c2C)OC1(C)C", "note": "[NOVOBIOCIN]", "MIC": 32}
{"test_system": "Pseudomonas aeruginosa", "assay": "Antimicrobial activity against mexB gene inactivated Pseudomonas aeruginosa isolate 2715 obtained from cystic fibrosis patient by agar dilution method", "units": {"MIC": "µg/mL"}}
{"smiles": "CO[C@@H]1[C@@H](OC(N)=O)[C@@H](O)[C@H](Oc2ccc3c(O)c(NC(=O)c4ccc(O)c(CC=C(C)C)c4)c(=O)oc3c2C)OC1(C)C", "note": "[NOVOBIOCIN]", "MIC": 8}
{"test_system": "Pseudomonas aeruginosa", "assay": "Antimicrobial activity against Pseudomonas aeruginosa isolate 3020S obtained from cystic fibrosis patient by disk diffusion method", "assay_type": "functional", "units": {"MIC": "µg/mL"}}
{"smiles": "CO[C@@H]1[C@@H](OC(N)=O)[C@@H](O)[C@H](Oc2ccc3c(O)c(NC(=O)c4ccc(O)c(CC=C(C)C)c4)c(=O)oc3c2C)OC1(C)C", "note": "[NOVOBIOCIN]", "MIC": 512}
{"test_system": "Pseudomonas aeruginosa", "assay": "Antimicrobial activity against Pseudomonas aeruginosa isolate 3066 obtained from cystic fibrosis patient", "units": {"MIC": "µg/mL"}}
{"smiles": "CO[C@@H]1[C@@H](OC(N)=O)[C@@H](O)[C@H](Oc2ccc3c(O)c(NC(=O)c4ccc(O)c(CC=C(C)C)c4)c(=O)oc3c2C)OC1(C)C", "note": "[NOVOBIOCIN]", "MIC": 32}
{"test_system": "Pseudomonas aeruginosa", "assay": "Antimicrobial activity against Pseudomonas aeruginosa isolate 2804 obtained from cystic fibrosis patient by disk diffusion method", "assay_type": "functional", "units": {"MIC": "µg/mL"}}
{"smiles": "CO[C@@H]1[C@@H](OC(N)=O)[C@@H](O)[C@H](Oc2ccc3c(O)c(NC(=O)c4ccc(O)c(CC=C(C)C)c4)c(=O)oc3c2C)OC1(C)C", "note": "[NOVOBIOCIN]", "MIC": 8}
{"test_system": "Pseudomonas aeruginosa", "assay": "Antimicrobial activity against Pseudomonas aeruginosa isolate 2721 obtained from cystic fibrosis patient by agar dilution method", "units": {"MIC": "µg/mL"}}
{"smiles": "CO[C@@H]1[C@@H](OC(N)=O)[C@@H](O)[C@H](Oc2ccc3c(O)c(NC(=O)c4ccc(O)c(CC=C(C)C)c4)c(=O)oc3c2C)OC1(C)C", "note": "[NOVOBIOCIN]", "MIC": 32}
{"test_system": "Pseudomonas aeruginosa", "assay": "Antimicrobial activity against Pseudomonas aeruginosa isolate 2715 obtained from cystic fibrosis patient by agar dilution method", "units": {"MIC": "µg/mL"}}
{"smiles": "CO[C@@H]1[C@@H](OC(N)=O)[C@@H](O)[C@H](Oc2ccc3c(O)c(NC(=O)c4ccc(O)c(CC=C(C)C)c4)c(=O)oc3c2C)OC1(C)C", "note": "[NOVOBIOCIN]", "MIC": 16}
{"test_system": "Pseudomonas aeruginosa", "assay": "Antimicrobial activity against Pseudomonas aeruginosa isolate 2716 obtained from cystic fibrosis patient by agar dilution method", "units": {"MIC": "µg/mL"}}
{"smiles": "CO[C@@H]1[C@@H](OC(N)=O)[C@@H](O)[C@H](Oc2ccc3c(O)c(NC(=O)c4ccc(O)c(CC=C(C)C)c4)c(=O)oc3c2C)OC1(C)C", "note": "[NOVOBIOCIN]", "MIC": 32}
{"test_system": "Pseudomonas aeruginosa", "assay": "Antimicrobial activity against Pseudomonas aeruginosa isolate 3066 obtained from cystic fibrosis patient by disk diffusion method", "assay_type": "functional", "units": {"MIC": "µg/mL"}}
{"smiles": "CO[C@@H]1[C@@H](OC(N)=O)[C@@H](O)[C@H](Oc2ccc3c(O)c(NC(=O)c4ccc(O)c(CC=C(C)C)c4)c(=O)oc3c2C)OC1(C)C", "note": "[NOVOBIOCIN]", "MIC": 32}
{"test_system": "Pseudomonas aeruginosa", "assay": "Antimicrobial activity against Pseudomonas aeruginosa isolate 615R obtained from cystic fibrosis patient by disk diffusion method", "assay_type": "functional", "units": {"MIC": "µg/mL"}}
{"smiles": "CO[C@@H]1[C@@H](OC(N)=O)[C@@H](O)[C@H](Oc2ccc3c(O)c(NC(=O)c4ccc(O)c(CC=C(C)C)c4)c(=O)oc3c2C)OC1(C)C", "note": "[NOVOBIOCIN]", "MIC": 4}
{"test_system": "Pseudomonas aeruginosa", "assay": "Antimicrobial activity against Pseudomonas aeruginosa isolate 2933 obtained from cystic fibrosis patient", "units": {"MIC": "µg/mL"}}
{"smiles": "CO[C@@H]1[C@@H](OC(N)=O)[C@@H](O)[C@H](Oc2ccc3c(O)c(NC(=O)c4ccc(O)c(CC=C(C)C)c4)c(=O)oc3c2C)OC1(C)C", "note": "[NOVOBIOCIN]", "MIC": 4}
{"test_system": "Pseudomonas aeruginosa", "assay": "Antimicrobial activity against Pseudomonas aeruginosa isolate 3020R obtained from cystic fibrosis patient by agar dilution method", "units": {"MIC": "µg/mL"}}
{"smiles": "CO[C@@H]1[C@@H](OC(N)=O)[C@@H](O)[C@H](Oc2ccc3c(O)c(NC(=O)c4ccc(O)c(CC=C(C)C)c4)c(=O)oc3c2C)OC1(C)C", "note": "[NOVOBIOCIN]", "MIC": 16}
{"test_system": "Pseudomonas aeruginosa", "assay": "Antimicrobial activity against Pseudomonas aeruginosa isolate 615S obtained from cystic fibrosis patient by disk diffusion method", "assay_type": "functional", "units": {"MIC": "µg/mL"}}
{"smiles": "CO[C@@H]1[C@@H](OC(N)=O)[C@@H](O)[C@H](Oc2ccc3c(O)c(NC(=O)c4ccc(O)c(CC=C(C)C)c4)c(=O)oc3c2C)OC1(C)C", "note": "[NOVOBIOCIN]", "MIC": 64}
{"test_system": "Pseudomonas aeruginosa", "assay": "Antimicrobial activity against mexB gene inactivated Pseudomonas aeruginosa isolate 3020S obtained from cystic fibrosis patient by agar dilution method", "units": {"MIC": "µg/mL"}}
{"smiles": "CO[C@@H]1[C@@H](OC(N)=O)[C@@H](O)[C@H](Oc2ccc3c(O)c(NC(=O)c4ccc(O)c(CC=C(C)C)c4)c(=O)oc3c2C)OC1(C)C", "note": "[NOVOBIOCIN]", "MIC": 8}
{"test_system": "Pseudomonas aeruginosa", "assay": "Antimicrobial activity against mexB gene inactivated Pseudomonas aeruginosa isolate 2716 obtained from cystic fibrosis patient by agar dilution method", "units": {"MIC": "µg/mL"}}
{"smiles": "CO[C@@H]1[C@@H](OC(N)=O)[C@@H](O)[C@H](Oc2ccc3c(O)c(NC(=O)c4ccc(O)c(CC=C(C)C)c4)c(=O)oc3c2C)OC1(C)C", "note": "[NOVOBIOCIN]", "MIC": 32}
{"test_system": "Pseudomonas aeruginosa", "assay": "Ratio of MIC for mexB deficient Pseudomonas aeruginosa FB1 mutant to Pseudomonas aeruginosa PAO1", "assay_type": "functional"}
{"smiles": "CO[C@@H]1[C@@H](OC(N)=O)[C@@H](O)[C@H](Oc2ccc3c(O)c(NC(=O)c4ccc(O)c(CC=C(C)C)c4)c(=O)oc3c2C)OC1(C)C", "note": "[NOVOBIOCIN]", "fold change (FC)": 16}
{"test_system": "Pseudomonas aeruginosa", "assay": "Antimicrobial activity against Pseudomonas aeruginosa isolate 2998 obtained from cystic fibrosis patient by agar dilution method", "units": {"MIC": "µg/mL"}}
{"smiles": "CO[C@@H]1[C@@H](OC(N)=O)[C@@H](O)[C@H](Oc2ccc3c(O)c(NC(=O)c4ccc(O)c(CC=C(C)C)c4)c(=O)oc3c2C)OC1(C)C", "note": "[NOVOBIOCIN]", "MIC": 32}
